Data from patent US20240425490A1, “SULFAMIDE RIBONUCLEOTIDE REDUCTASE (RNR) INHIBITORS AND USES THEREOF” (Boundless Bio, Inc., priority 2021, published 2024).

Target: T1, RNR (RNR1:RNR2 1:1) (Homo sapiens, UniProt P23921)
T1 sequence (P23921 1-792): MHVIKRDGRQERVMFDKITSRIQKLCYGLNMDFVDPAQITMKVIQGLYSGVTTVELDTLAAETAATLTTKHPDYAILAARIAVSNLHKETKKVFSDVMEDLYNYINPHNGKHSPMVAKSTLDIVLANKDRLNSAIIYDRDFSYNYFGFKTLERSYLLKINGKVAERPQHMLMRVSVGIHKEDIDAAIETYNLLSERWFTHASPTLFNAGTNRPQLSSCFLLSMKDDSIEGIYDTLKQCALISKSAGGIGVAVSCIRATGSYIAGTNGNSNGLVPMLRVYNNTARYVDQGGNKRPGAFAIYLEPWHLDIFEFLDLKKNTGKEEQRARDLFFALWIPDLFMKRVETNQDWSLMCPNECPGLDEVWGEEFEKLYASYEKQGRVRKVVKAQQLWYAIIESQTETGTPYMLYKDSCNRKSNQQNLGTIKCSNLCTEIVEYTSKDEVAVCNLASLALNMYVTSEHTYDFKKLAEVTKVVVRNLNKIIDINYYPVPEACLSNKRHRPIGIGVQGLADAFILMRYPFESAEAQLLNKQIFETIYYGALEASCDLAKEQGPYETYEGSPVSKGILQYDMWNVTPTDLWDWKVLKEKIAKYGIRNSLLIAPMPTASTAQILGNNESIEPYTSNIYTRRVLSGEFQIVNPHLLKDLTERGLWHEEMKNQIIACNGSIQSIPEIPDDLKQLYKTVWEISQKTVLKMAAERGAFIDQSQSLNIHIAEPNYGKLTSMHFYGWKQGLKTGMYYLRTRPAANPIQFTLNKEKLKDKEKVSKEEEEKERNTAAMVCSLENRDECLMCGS
Assay: RNR enzyme activity, rapid-fire mass spectrometry (RFMS) assay
Type: biochemical
Conditions: RNR 50 nM, CDP 5 μM, ATP 1 mM, 37° C., 45 min, compounds screened up to 50 μM, read-out: RF/MS IC50
Procedure: A rapid-fire mass spectrometry (RFMS) assay was used to assess RNR enzyme activity using a 384 well plate and a robotic platform.
The plate layout included two validated reference compounds (Triapine (3-AP) and Hydroxyurea (HU)): • A dose response in duplicate; top concentration: 5 μM (3-AP) and 250 μM (HU), semi-log dilutions. • Spike wells in triplicate randomly spotted at four concentrations: • 250 μM, 100 μM, 30 μM and 2 μM for HU • 5 μM, 2 μM, 0.6 μM and 0.04 μM for 3-AP
First, the multidrop pipes were saturated for 30 minutes with enzymatic solution. Then 30 μL of Stop solution was distributed in column 24. Next, 15 μL of enzyme was distributed in column 1 to 24. Next, a pre-incubation step of 15 minutes at room temperature occurred, followed by distribution of 15 μL of substrate solution (column 1 to 24). Next, the plate was incubated for 45 minutes at 37° C. 30 μL of Stop solution was distributed to columns 1 to 23.
The final parameters for the enzyme reactions were: • Incubation: 37° C., 45 min • [CDP]: 5 μM; [ATP]: 1 mM; [NADPH]: No • [RNR] final: 50 nM with 1:1 (RNR1:RNR2) ratio • Final volume: 30 μL • Stop solution: 6% HCOOH containing 2 μM of 15

Row | Compound | IC50 [µM]
1 | Cc1ccc(F)c([C@@H](C)[C@H](NS(=O)(=O)N2CCC(S(C)(=O)=O)CC2)c2n[nH]c(=O)o2)c1C [Example 51, N-((1S,2R)-2-(6-fluoro-2,3-dimethylphenyl)-1-(5-oxo-4,5-dihydro-1,3,4-oxadiazol-2-yl)propyl)-4-(methylsulfonyl)piperidine-1-sulfonamide] | 10 to 100
2 | CC(=O)NC1CCN(S(=O)(=O)N[C@H](c2n[nH]c(=O)o2)C(C)c2c(F)ccc(C)c2C)CC1 (stereo partly drawn) [Example 29, N-(1-(N-((1S)-2-(6-fluoro-2,3-dimethylphenyl)-1-(5-oxo-4,5-dihydro-1,3,4-oxadiazol-2-yl)propyl)sulfamoyl)piperidin-4-yl)acetamide] | 10 to 100
3 | Cc1ccc(F)c([C@@H](C)[C@H](NS(=O)(=O)N2CCCCC2CC(N)=O)c2n[nH]c(=O)o2)c1C (stereo partly drawn) [Example 15, 2-(1-(N-((1S,2R)-2-(6-fluoro-2,3-dimethylphenyl)-1-(5-oxo-4,5-dihydro-1,3,4-oxadiazol-2-yl)propyl)sulfamoyl)piperidin-2-yl)acetamide] | 0.1 to 1
4 | Cc1ccc(F)c([C@@H](C)[C@H](NS(=O)(=O)N2CCC(N3CCCC3)CC2)c2n[nH]c(=O)o2)c1C [Example 50, N-((1S,2R)-2-(6-fluoro-2,3-dimethylphenyl)-1-(5-oxo-4,5-dihydro-1,3,4-oxadiazol-2-yl)propyl)-4-(pyrrolidin-1-yl)piperidine-1-sulfonamide] | 10 to 100
5 | Cc1ccc(F)c([C@@H](C)[C@H](NS(=O)(=O)N2CCC(Cl)(Cl)CC2)c2n[nH]c(=O)o2)c1C [Example 97, 4,4-dichloro-N-((1S,2R)-2-(6-fluoro-2,3-dimethylphenyl)-1-(5-oxo-4,5-dihydro-1,3,4-oxadiazol-2-yl)propyl)piperidine-1-sulfonamide] | ≤ 0.1
6 | Cc1ccc(F)c([C@H](C)[C@H](NS(=O)(=O)N2CC3CC3C2)c2n[nH]c(=O)o2)c1C (stereo partly drawn) [Example 104, N-((1S,2S)-2-(6-fluoro-2,3-dimethylphenyl)-1-(5-oxo-4,5-dihydro-1,3,4-oxadiazol-2-yl)propyl)-3-azabicyclo[3.1.0]hexane-3-sulfonamide] | 10 to 100
7 | Cc1ccc(F)c(C(C)[C@H](NS(=O)(=O)N2CCC(O)(C(F)(F)F)CC2)c2n[nH]c(=O)o2)c1C (stereo partly drawn) [Example 89, N-((1S)-2-(6-fluoro-2,3-dimethylphenyl)-1-(5-oxo-4,5-dihydro-1,3,4-oxadiazol-2-yl)propyl)-4-hydroxy-4-(trifluoromethyl)piperidine-1-sulfonamide] | 0.1 to 1
8 | Cc1ccc(F)c([C@@H](C)[C@H](NS(=O)(=O)N2CCC3(CC2)OCCO3)c2n[nH]c(=O)o2)c1C [Example 133, N-((1S,2R)-2-(6-fluoro-2,3-dimethylphenyl)-1-(5-oxo-4,5-dihydro-1,3,4-oxadiazol-2-yl)propyl)-1,4-dioxa-8-azaspiro[4.5]decane-8-sulfonamide] | 10 to 100
9 | Cc1ccc(F)c([C@@H](C)[C@H](NS(=O)(=O)N2CCc3cc(Cl)ccc3C2)c2n[nH]c(=O)o2)c1C [Example 107, 6-chloro-N-((1S,2R)-2-(6-fluoro-2,3-dimethylphenyl)-1-(5-oxo-4,5-dihydro-1,3,4-oxadiazol-2-yl)propyl)-3,4-dihydroisoquinoline-2(1H)-sulfonamide] | 0.1 to 1
10 | COCC1CCCN(S(=O)(=O)N[C@H](c2n[nH]c(=O)o2)[C@H](C)c2c(F)ccc(C)c2C)C1 (stereo partly drawn) [Example 129, N-((1S,2R)-2-(6-fluoro-2,3-dimethylphenyl)-1-(5-oxo-4,5-dihydro-1,3,4-oxadiazol-2-yl)propyl)-3-(methoxymethyl)piperidine-1-sulfonamide] | 1 to 10
11 | Cc1ccc(F)c([C@H](C)[C@H](NS(=O)(=O)N2CCCC(C)(C)C2)c2n[nH]c(=O)o2)c1C [Example 119, N-((1S,2S)-2-(6-fluoro-2,3-dimethylphenyl)-1-(5-oxo-4,5-dihydro-1,3,4-oxadiazol-2-yl)propyl)-3,3-dimethylpiperidine-1-sulfonamide] | 1 to 10
12 | Cc1ccc(F)c(C(C)[C@H](NS(=O)(=O)N2CCN(CC(F)F)CC2)c2n[nH]c(=O)o2)c1C (stereo partly drawn) [Example 124, 4-(2,2-difluoroethyl)-N-((1S)-2-(6-fluoro-2,3-dimethylphenyl)-1-(5-oxo-4,5-dihydro-1,3,4-oxadiazol-2-yl)propyl)piperazine-1-sulfonamide] | 1 to 10
13 | Cc1ccc(F)c(C(C)[C@H](NS(=O)(=O)N2CCCC2)c2n[nH]c(=O)o2)c1C (stereo partly drawn) [Example 112, N-((1S)-2-(6-fluoro-2,3-dimethylphenyl)-1-(5-oxo-4,5-dihydro-1,3,4-oxadiazol-2-yl)propyl)pyrrolidine-1-sulfonamide] | 1 to 10
14 | Cc1ccc(F)c([C@@H](C)[C@H](NS(=O)(=O)N2CCc3ccc(Cl)c(Cl)c3C2)c2n[nH]c(=O)o2)c1C [Example 108, 7,8-dichloro-N-((1S,2R)-2-(6-fluoro-2,3-dimethylphenyl)-1-(5-oxo-4,5-dihydro-1,3,4-oxadiazol-2-yl)propyl)-3,4-dihydroisoquinoline-2(1H)-sulfonamide] | 0.1 to 1
15 | Cc1ccc(F)c(C(C)[C@H](NS(=O)(=O)N2CCC3(CC2)COC(=O)O3)c2n[nH]c(=O)o2)c1C (stereo partly drawn) [Example 67, N-((1S)-2-(6-fluoro-2,3-dimethylphenyl)-1-(5-oxo-4,5-dihydro-1,3,4-oxadiazol-2-yl)propyl)-2-oxo-1,3-dioxa-8-azaspiro[4.5]decane-8-sulfonamide] | 10 to 100
16 | Cc1ccc(F)c([C@H](C)[C@H](NS(=O)(=O)N2CCCCC2CC(N)=O)c2n[nH]c(=O)o2)c1C (stereo partly drawn) [Example 16, 2-(1-(N-((1S,2S)-2-(6-fluoro-2,3-dimethylphenyl)-1-(5-oxo-4,5-dihydro-1,3,4-oxadiazol-2-yl)propyl)sulfamoyl)piperidin-2-yl)acetamide] | 1 to 10
17 | Cc1ccc(F)c(C(C)[C@H](NS(=O)(=O)N2CCC(C(=O)N(C)C)CC2)c2n[nH]c(=O)o2)c1C (stereo partly drawn) [Example 64, 1-(N-((1S)-2-(6-fluoro-2,3-dimethylphenyl)-1-(5-oxo-4,5-dihydro-1,3,4-oxadiazol-2-yl)propyl)sulfamoyl)-N,N-dimethylpiperidine-4-carboxamide] | 1 to 10
18 | COCC1CCN(S(=O)(=O)N[C@H](c2n[nH]c(=O)o2)[C@@H](C)c2c(F)ccc(C)c2C)CC1 [Example 128, N-((1S,2S)-2-(6-fluoro-2,3-dimethylphenyl)-1-(5-oxo-4,5-dihydro-1,3,4-oxadiazol-2-yl)propyl)-4-(methoxymethyl)piperidine-1-sulfonamide] | 1 to 10
19 | Cc1ccc(F)c([C@H](C)[C@H](NS(=O)(=O)N2CCC(C)(C#N)CC2)c2n[nH]c(=O)o2)c1C [Example 82, 4-cyano-N-((1S,2S)-2-(6-fluoro-2,3-dimethylphenyl)-1-(5-oxo-4,5-dihydro-1,3,4-oxadiazol-2-yl)propyl)-4-methylpiperidine-1-sulfonamide] | 1 to 10
20 | Cc1ccc(F)c([C@@H](C)[C@H](NS(=O)(=O)N2CCC[C@](C)(O)C2)c2n[nH]c(=O)o2)c1C [Example 20, (S)-N-((1S,2R)-2-(6-fluoro-2,3-dimethylphenyl)-1-(5-oxo-4,5-dihydro-1,3,4-oxadiazol-2-yl)propyl)-3-hydroxy-3-methylpiperidine-1-sulfonamide] | 1 to 10
